Laboratory results: ChEMBL document CHEMBL2062510, “Acylphloroglucinols from Elaphoglossum crassipes: antidepressant-like activity of crassipin A” (J Nat Prod, 2012)
The source made the active and inactive calls. No cut-off for these calls is given here.

Assays:
Mus musculus [1] = assay: Antidepressant activity in CF1 mouse assessed as reduction in immobility at 20 mg/kg, po measured after 60 mins by forced-swimming test; format: functional, organism-based; design: dose 20 mg/kg
Mus musculus [2] = assay: Toxicity in CF1 mouse assessed as change in number of grooming at 15 mg/kg, po measured after 60 mins by open-field test; format: organism-based; design: dose 15 mg/kg, route oral; conditions: in vivo, 1 h
Mus musculus [3] = assay: Toxicity in CF1 mouse assessed as change in number of rearing at 15 mg/kg, po measured after 60 mins by open-field test; format: organism-based; design: dose 15 mg/kg, route oral; conditions: in vivo, 1 h
Mus musculus [4] = assay: Antidepressant activity in CF1 mouse assessed as reduction in immobility at 15 mg/kg, po measured after 60 mins by forced-swimming test; format: functional, organism-based; design: dose 15 mg/kg
Mus musculus [5] = assay: Toxicity in CF1 mouse assessed as change in number of crossing at 15 mg/kg, po measured after 60 mins by open-field test; format: organism-based; design: dose 15 mg/kg, route oral; conditions: in vivo, 1 h

For `CN(C)CCCN1c2ccccc2CCc2ccccc21`, the Activity (Mus musculus [1]) was “Active”.

For `CC/C=C(\OC(C)=O)C1=C(OC(C)=O)[C@](C)(C/C=C(\C)CCC=C(C)C)C(OC(C)=O)=C(Cc2c(OC(C)=O)c3c(c(C(=O)CCC)c2OC(C)=O)OC(C)(C)C=C3)C1=O`, the Activity (Mus musculus [2]) was “Non-toxic”, the Activity (Mus musculus [3]) was “Non-toxic” and the Activity (Mus musculus [4]) was “Active”. The Activity (Mus musculus [5]) was “Non-toxic”.

In the case of `CCCC(=O)C1=C(O)[C@](C)(C/C=C(\C)CCC=C(C)C)C(O)=C(Cc2c(O)c3c(c(C(=O)CCC)c2O)OC(C)(C)C=C3)C1=O` [CRASSIPIN A], the Activity (Mus musculus [2]) is reported as “Non-toxic”, the Activity (Mus musculus [3]) is reported as “Non-toxic” and the Activity (Mus musculus [4]) is reported as “Active”. For the same compound, the Activity (Mus musculus [5]) was “Non-toxic”.
